Like-named read-outs stand apart in the source and are kept apart here.

A short description of series [1]: Effect of pH on the reactivity (FIG. 11). The series is classed as physicochemical. To be noted: biologically relevant pH range. The text has this:
FIG. 11 is a graph showing the effect of pH on the reactivity of the compound of Formula 4;

Series [2] relates to astrocytes. The experiment in a line: Two-photon microscopy of cultured astrocytes. The series is classed as cell-based, rat. To be noted: cultured astrocytes labeled with 2 μM probe. Here is the method: Astrocytes were taken from cerebral cortices of 1-day-old rats (Sprague-Dawley; SD). Cerebral cortices were dissociated in Hank's balanced salt solution (HBSS; Gibco BRL, Gaithersburg, Md., USA) containing 3 U/ml papain (Worthington Biochemical Corporation, NJ, USA) and plated in 75 mm flasks. To prepare purified astrocytes culture, flasks were shaken for 6 h on a shaker at 37° C., and the floating cells that were displaced into the media were removed. Astrocytes were passaged with 5 min exposure to 0.25% trypsin and replated onto poly-D-lysin-coated glass coverslips at 50˜100 cells/mm^2 and were maintained in Dulbecco's modified Eagle's medium (DMEM; Gibco) supplemented with penicillin/streptomycin and 10% fetal bovine serum (FBS; Gibco) in a CO2 incubator at 37° C. After 7-15 days in vitro, astrocytes were washed three times with serum-free media, and then incubated with 2 μM of the compound of Formula 7 in serum-free media for 20 min at 37° C. The cells were washed three times with phosphate buffered saline (PBS; Gibco) and then imaged after further incubation in colorless serum-free media for 15 min.
The spontaneous increase in [Ca^2+]i also propagated between astrocytes, as indicated by the delayed activity in the neighboring astrocyte (FIGS. 15b and 15d).

Series [3] can be described thus: Two-photon excited fluorescence (TPEF) titration with Ca2+ (Kd^TP). Format: binding. To be noted: estimated from the two-photon titration curve. The text has this: In order to determine the Kd^TP for the two-photon process, the TPEF spectra were obtained with a DM IRE2 Microscope (Leica) excited by a mode-locked titanium-sapphire laser source (Coherent Chameleon, 90 MHz, 200 fs) set at wavelength 780 nm and output power 1230 mW, which corresponded to approximately 10 mW average power in the focal plane. The TPEF titration curves (FIG. 6) were obtained and fitted to Equation 3.

Series [4] concerns acute rat hypothalamic slice. Put plainly: Two-photon microscopy of acute rat hypothalamic slices. The series is classed as cell-based. Here is the method: Slices were prepared from the hippocampi and the hypothalmic of 2-day-old rat (SD). Coronal slices were cut into 400 μm thick using a vibrating-blade microtome in artificial cerebrospinal fluid (ACSF; 138.6 mM NaCl, 3.5 mM KCl, 21 mM NaHCO3, 0.6 mM NaH2PO4, 9.9 mM D-glucose, 1 mM CaCl2, and 3 mM MgCl2). Slices were incubated with the compound (10 μM) of Formula 7 in ACSF bubbled with 95% O2 and 5% CO2 for 30 min at 37° C. Slices were then washed three times with ACSF and transferred to glass-bottomed dishes (MatTek) and observed in a spectral confocal multi photon microscope.

Series [5] can be described thus: Two-photon action spectra / two-photon cross section. Format: physicochemical. Here is the method:
Thus, TPM images for samples stained with the compound of Formula 4 would be much brighter than those stained with commercial probe. In addition, the two-photon fluorescence enhancement factor (TFEF) estimated from the two-photon titration curve was 44 (Table 2), a value that allowed detection of Ca^2+ by TPM.
The two-photon cross section (δ) was determined by using femto second (fs) fluorescence measurement technique (S. K. Lee, W. J. Yang, J. J. Choi, C. H. Kim, S.-J, Jeon, B. R. Cho, Org. Lett. 2005, 7, 323-326).

Series [6] in a line: One-photon fluorescence titration with Ca2+ (Kd^OP, enhancement factor, Hill plot). The series is classed as binding. To be noted: presence of 39 μM Ca2+. How it is done: A series of calibration solutions containing various [Ca^2+] was prepared by mixing two solutions (solution A containing 10 mM K2EGTA and solution B containing 10 mM CaEGTA) in various ratios. Both solutions contained the compound (1 μM) of Formula 4, 100 mM KCl, 30 mM MOPS, and they were adjusted to pH 7.2.
Then, 203 μl of this solution was discarded and replaced by 203 μl of solution B (39 μM free Ca^2+), and the spectrum was recorded. This brings the CaEGTA concentration to 1.00 mM and the [Ca^2]free to about 0.017 μM with no change in the concentration of the probe or of the total EGTA. The [Ca^2+]free is calculated from the Kd of EGTA for Ca^2+ (150.5 nM) using Equation 2: […]
where F is the observed fluorescence intensity, Fmin is the minimum fluorescence intensity, and Fmax is the maximum fluorescence intensity. The Kd value that best fits the titration curve (FIG. 6) with Equation 5 was calculated by using the Excel program as reported (J. R. Long, R. S. Drago, J. Chem. Ed. 1982, 59, 1037; K. Hirose, J. Incl. Phenom. Macrocycl. Chem. 2001, 39, 193).
The dissociation constants (Kd^OP) were calculated from the fluorescence titration curves (FIG. 6), as reported (J. R. Long, R. S. Drago, J. Chem. Educ. 1982, 59, 1037-1039).

Series [7] in a line: One-photon absorption and emission spectra, fluorescence quantum yield. The series is classed as physicochemical. To be noted: for Φ fluorescence quantum yield: ±10%. How it is done:
The absorption spectra of the compound of Formula 7 were recorded on a Hewlett-Packard 8453 diode array spectrophotometer, and the fluorescence spectra of the compound were obtained with Amico-Bowman series 2 luminescence spectrometer with a 1 cm standard quartz cell. The fluorescence quantum yield of the compound was determined by using Coumarin 307 as the reference by the literature method (J. N. Demas, G. A. Crosby, J. Phys. Chem. 1971, 75, 991-1024.).

Series [8] can be described thus: Reactivity for various metal ions (FIG. 10). The source says:
FIG. 10 is a graph showing the reactivity of the compound of Formula 4 for various metal ions;

The conditions of series [9]: previously reported value, cited from earlier work.
Setting [10] is: prolonged observation time in tissue.
Where [11] appears, read: 30 mM MOPS, 100 mM KCl, 10 mM EGTA, pH 7.2, absence of free Ca2+.
[12] abbreviates: MOPS buffer pH 7.2, presence of 39 μM free Ca2+.

As for `CC(=O)c1ccc2cc(N(C)CC(=O)Nc3ccc(N(CC(=O)O)CC(=O)O)c(OCCOc4ccccc4N(CC(=O)O)CC(=O)O)c3)ccc2c1` [Formula 4], in [1], the pH sensitivity entry is listed as “pH-insensitive”. Moreover, in [2], the “visualization of calcium waves by TPM” value was “clearly capable of visualizing the intra- and intercellular calcium waves”. Also, the “FEF^TP two-photon fluorescence enhancement factor” value in [3] is given as 44. In addition, the “imaging depth in live tissue” value in [4] (TPM) was about 170 μm. Besides, in series [4] (setting [10]), the photo-stability entry is reported as “high photo-stability” and the photo-toxicity entry is “low photo-toxicity”. Moreover, in series [5] (Ca2+ complexes in buffer), the “Φδ / TPEF relative to OG1-Ca2+” value was determined as 5 fold. For the same compound, in series [5] (presence of 39 μM free Ca2+), the “Φδ two-photon action cross section” value is 110 GM and the “λmax^(2) of the two-photon excitation spectra” value was determined as 780 nm. Also, in [5] (presence of 39 μM free Ca2+, ±15%), the “δ peak two-photon cross section” value is on record as 230 GM. Further, in series [6], the “FEF^OP fluorescence enhancement factor (F − Fmin)/Fmin, one-photon” value was 40 and the “fluorescence enhancement factor relative to OG1” value is about 3 fold. Further, in [7] (setting [11]), the “λmax^(l) one-photon absorption” value amounted to 365 nm, the “λmax^fl one-photon emission” value is listed as 498 nm and the “Φ fluorescence quantum yield” value was determined as 0.012. For the same compound, in series [7] (setting [12]), the “λmax^(l) one-photon absorption” value was found to be 365 nm, the “λmax^fl one-photon emission” value turned out to be 498 nm and the “Φ fluorescence quantum yield” value is reported as 0.49. Moreover, in series [8], the “response toward CO^2+” value is “much weaker response”, the “response toward Cu^2+” value is “no response”, the “response toward Fe^2+” value is “much weaker response” and the “response toward Mg^2+” value is “much weaker response”. Besides, in series [8], the “response toward Mn^2+” value is “modest response” and the “response toward Zn^2+” value was “modest response”.

Consider Oregon Green 488 BAPTA-1 [OG1], for which the “FEF^OP fluorescence enhancement factor (F − Fmin)/Fmin, one-photon” value was 14 in series [9] and 14^[l]/nd in series [9] (listed as OG1 + Ca^2+).

(Values after patent US8084647B2, “Two-photon probe for real-time monitoring of intracellular calcium ions, method for preparing the probe and method for real-time monitoring of intracellular calcium ions using the probe” (Korea University Industry and Academy Cooperation Foundation, priority 2007, dated 2011).)
